From patent publication US8791267B2, “Biaryl PDE4 inhibitors for treating inflammatory, cardiovascular and CNS disorders” (Decode Genetics EHF, priority 2007, dated 2014)
Where a name gives a salt, the structure may show the parent alone.

Key:
[1] = biological target: PDE4 (Homo sapiens, UniProt Q08499); assay: In-vitro assay for PDE4 enzymes, real-time enzyme-coupled spectrophotometric assay (Table 9); format: biochemical; details: human PDE4D; activity class, Table 9; read-out: hPDE4D
[2] = biological target: PDE4B (Homo sapiens, UniProt Q07343); assay: In-vitro assay for PDE4 enzymes, real-time enzyme-coupled spectrophotometric assay, PDE4B Activity (Table 10); format: biochemical; details: human PDE4B (hPDE4B), enzyme-coupled spectrophotometric assay; read-out: PDE4B Activity, hPDE4B
Sequence of PDE4B (Q07343 whole entry): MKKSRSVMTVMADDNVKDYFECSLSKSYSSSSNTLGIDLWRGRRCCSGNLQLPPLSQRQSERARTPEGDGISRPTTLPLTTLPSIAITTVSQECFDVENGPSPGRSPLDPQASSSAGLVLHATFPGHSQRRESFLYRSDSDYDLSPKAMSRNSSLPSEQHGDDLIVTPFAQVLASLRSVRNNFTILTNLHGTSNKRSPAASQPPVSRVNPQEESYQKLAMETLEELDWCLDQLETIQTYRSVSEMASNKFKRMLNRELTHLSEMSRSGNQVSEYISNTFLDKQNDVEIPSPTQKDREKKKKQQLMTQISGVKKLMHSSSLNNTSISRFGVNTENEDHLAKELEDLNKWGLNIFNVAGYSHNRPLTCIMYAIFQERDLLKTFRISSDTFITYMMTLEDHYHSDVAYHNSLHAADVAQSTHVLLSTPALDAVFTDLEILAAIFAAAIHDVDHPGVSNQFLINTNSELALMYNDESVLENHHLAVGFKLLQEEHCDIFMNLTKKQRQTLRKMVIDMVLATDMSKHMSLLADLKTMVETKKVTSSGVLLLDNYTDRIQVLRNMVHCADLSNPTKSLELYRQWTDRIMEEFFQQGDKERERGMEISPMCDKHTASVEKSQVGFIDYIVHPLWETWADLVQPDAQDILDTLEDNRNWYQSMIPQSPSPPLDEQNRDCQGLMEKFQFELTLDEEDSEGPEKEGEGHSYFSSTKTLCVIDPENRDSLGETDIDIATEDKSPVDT

Sequence of PDE4 (Q08499 whole entry): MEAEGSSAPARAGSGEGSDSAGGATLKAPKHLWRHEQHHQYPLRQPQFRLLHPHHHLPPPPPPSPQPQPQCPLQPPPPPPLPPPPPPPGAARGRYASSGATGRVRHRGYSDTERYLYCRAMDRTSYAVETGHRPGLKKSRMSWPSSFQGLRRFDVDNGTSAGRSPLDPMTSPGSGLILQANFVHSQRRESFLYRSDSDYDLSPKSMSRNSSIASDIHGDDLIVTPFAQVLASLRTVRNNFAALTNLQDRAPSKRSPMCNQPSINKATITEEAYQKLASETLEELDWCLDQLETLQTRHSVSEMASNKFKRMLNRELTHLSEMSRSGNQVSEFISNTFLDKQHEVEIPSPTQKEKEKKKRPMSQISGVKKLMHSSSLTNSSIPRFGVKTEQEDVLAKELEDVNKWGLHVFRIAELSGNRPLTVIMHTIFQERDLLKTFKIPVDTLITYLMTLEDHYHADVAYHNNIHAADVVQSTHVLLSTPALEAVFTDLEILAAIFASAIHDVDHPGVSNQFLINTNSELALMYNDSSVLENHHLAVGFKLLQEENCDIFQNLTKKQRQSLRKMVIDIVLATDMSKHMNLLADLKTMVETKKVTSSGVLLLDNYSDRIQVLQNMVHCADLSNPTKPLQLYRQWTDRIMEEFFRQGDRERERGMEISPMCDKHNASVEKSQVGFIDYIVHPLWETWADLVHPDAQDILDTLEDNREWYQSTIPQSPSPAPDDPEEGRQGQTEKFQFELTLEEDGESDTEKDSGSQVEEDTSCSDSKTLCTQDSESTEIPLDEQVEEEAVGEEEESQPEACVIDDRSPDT

Row | IC50 [1] | IC50 [2] | Structure (SMILES)
1 | < 5 µM | < 5 µM | COc1ccc(CN2CCCCS2(=O)=O)cc1-c1cccc([N+](=O)[O-])c1 [P-035, 2-(6-Methoxy-3′-nitro-biphenyl-3-ylmethyl)-[1,2]thiazinane 1,1-dioxide]
2 | < 5 µM | < 5 µM | COc1ccc(Cc2ccc(-n3cnnn3)cc2)c(F)c1-c1cccc(Cl)c1 [P-404, 1-[4-(3′-chloro-2-fluoro-6-methoxy-biphenyl-3-ylmethyl)-phenyl]-1H-tetrazole]
3 | < 5 µM | < 5 µM | CCNC(=O)Nc1ccc(Cc2ccc(OC)c(-c3cccc(Cl)c3)n2)cn1 [P-386, 1-{5-[6-(3-chloro-phenyl)-5-methoxy-pyridin-2-ylmethyl]-pyridin-2-yl}-3-ethyl-urea hydrochloride]
4 | < 5 µM | 5 to 20 µM | O=C1CCCN1Cc1ccc(O)c(-c2cccc([N+](=O)[O-])c2)c1O [P-504, 1-(2,6-Dihydroxy-3′-nitro-biphenyl-3-ylmethyl)-pyrrolidin-2-one]
5 | < 5 µM | < 5 µM | COc1ccc(Cc2ccc(-n3ccnc3)nc2)c(F)c1-c1cccc(Cl)c1 [P-573, 5-(3′-chloro-2-fluoro-6-methoxy-biphenyl-3-ylmethyl)-2-imidazol-1-yl-pyridine]
6 | < 5 µM | < 5 µM | COc1ccc(Cc2ccc(F)cc2)cc1-c1cccc(C(C)=O)c1 [P-140, 1-[5′-(4-Fluoro-benzyl)-2′-methoxy-biphenyl-3-yl]-ethanone]
7 | < 5 µM | < 5 µM | COc1ccc(Cc2ccc(C#N)nc2)c(F)c1-c1cccc(Cl)c1 [P-355]
8 | < 5 µM | < 5 µM | COc1ccc(Cc2cnc(NS(C)(=O)=O)nc2)c(F)c1-c1cccc(C(C)=O)c1 [P-284, N-[5-(3′-Acetyl-2-fluoro-6-methoxy-biphenyl-3-ylmethyl)-pyrimidin-2-yl]-methanesulfonamide]
9 | < 5 µM | < 5 µM | COc1ccc(Cc2ccnn2C)cc1-c1ccc2c(c1)OCO2 [P-075, 5-(3-Benzo[1,3]dioxol-5-yl-4-methoxy-benzyl)-1-methyl-1H-pyrazole]
10 | < 5 µM | < 5 µM | COc1ccc(-n2cnc3ccc(N)cc32)cc1-c1cccc(Cl)c1 [P-524, 3-(3′-Chloro-6-methoxy-biphenyl-3-yl)-3H-benzoimidazol-5-ylamine]
11 | < 5 µM | < 5 µM | COc1ccc(Cc2cccc(O)c2)cc1-c1cccc([N+](=O)[O-])c1 [P-102, 3-(6-Methoxy-3′-nitro-biphenyl-3-ylmethyl)-phenol]
12 | < 5 µM | < 5 µM | COc1ccc(Cc2cccnc2)c(O)c1-c1cccc([N+](=O)[O-])c1 [P-106]
13 | < 5 µM | < 5 µM | COc1ccc(Cc2cccc(O)c2)c(F)c1-c1cccc(Cl)c1 [P-217]
14 | < 5 µM | < 5 µM | COc1ccc(Cc2ccc(C#N)cc2)c(O)c1-c1cccc([N+](=O)[O-])c1 [P-138, 4-(2-Hydroxy-6-methoxy-3′-nitro-biphenyl-3-ylmethyl)-benzonitrile]
15 | < 5 µM | < 5 µM | COc1ccc(Cc2ccc(NC(N)=O)cc2)c(F)c1-c1cccc([N+](=O)[O-])c1 [P-181]
16 | < 5 µM | < 5 µM | CNC(=O)NCc1ccc(Cc2ccc(OC)c(-c3cccc(Cl)c3)c2F)cn1 [P-460, 1-[5-(3′-Chloro-2-fluoro-6-methoxy-biphenyl-3-ylmethyl)-pyridin-2-ylmethyl]-3-methyl-urea hydrochloride]
17 | < 5 µM | < 5 µM | COc1ccc(Cc2ccc(Nc3nccn3C)cc2)cc1-c1cccc(Cl)c1 [P-467, [4-(3′-Chloro-6-methoxy-biphenyl-3-ylmethyl)-phenyl]-(1-methyl-1H-imidazol-2-yl)-amine]
18 | < 5 µM | < 5 µM | Nc1ccc(Cc2ccc(OC(F)F)c(-c3cccc(Cl)c3)c2)cn1 [P-611, 5-(3′-Chloro-6-difluoromethoxy-biphenyl-3-ylmethyl)-pyridin-2-ylamine hydrochloride]
19 | < 5 µM | < 5 µM | Nc1ccc(Cc2ccc(OC3COC3)c(-c3cccc(Cl)c3)c2)cc1 [P-562, 4-[3′-Chloro-6-(oxetan-3-yloxy)-biphenyl-3-ylmethyl]-phenylamine]
20 | < 5 µM | < 5 µM | COc1ccc(Cc2ccc(NC(=O)CCN)cc2)cc1-c1cccc([N+](=O)[O-])c1 [P-159]
21 | 20 to 40 µM | 5 to 20 µM | COc1ccc(CN2C(=O)CC[C@H]2CN)cc1-c1cccc([N+](=O)[O-])c1 [P-155, (S)-5-Aminomethyl-1-(6-methoxy-3′-nitro-biphenyl-3-ylmethyl)-pyrrolidin-2-one]
22 | < 5 µM | < 5 µM | COc1ccc(Cc2cccc(N)c2)c(F)c1-c1cccc(Cl)c1 [P-234]

Row | IC50 [1] | IC50 [2] | Structure (SMILES)
23 | < 5 µM | 5 to 20 µM | COc1ccc(Cc2ccc3cnc(C(N)=O)n3c2)c(F)c1-c1cccc(Cl)c1 [P-445, 6-(3′-chloro-2-fluoro-6-methoxy-biphenyl-3-ylmethyl)-imidazo[1,5-a]pyridine-3-carboxylic acid amide]
24 | < 5 µM | < 5 µM | COc1ccc(Cn2cc(-c3cnccn3)cn2)c(F)c1-c1cccc(Cl)c1 [P-545, 2-[1-(3′-Chloro-2-fluoro-6-methoxy-biphenyl-3-ylmethyl)-1H-pyrazol-4-yl]-pyrazine]
25 | < 5 µM | < 5 µM | COc1ccc(Cc2ccc(CNC(N)=O)cc2)c(F)c1-c1cccc([N+](=O)[O-])c1 [P-237]
26 | < 5 µM | < 5 µM | COc1ccc(Cc2ccc3c(c2)OCO3)c(F)c1-c1cccc(Cl)c1 [P-242]
27 | < 5 µM | < 5 µM | COc1ccc(Cc2ccc(NC(C)=O)cc2)c(F)c1-c1cccc(Cl)c1 [P-228]
28 | < 5 µM | < 5 µM | COc1ccc(Cc2ccc(CN3CCOC3=O)nc2)c(F)c1-c1cccc(Cl)c1 [P-465, 3-[5-(3′-Chloro-2-fluoro-6-methoxy-biphenyl-3-ylmethyl)-pyridin-2-ylmethyl]-oxazolidin-2-one hydrochloride]
29 | < 5 µM | 21 to 40 µM | CC(=O)Nc1ccc(Cc2ccc(O)c(-c3cccc(Br)c3)c2F)cc1 [P-620]
30 | < 5 µM | < 5 µM | COc1ccc(Cc2ccc(OCCN(C)C)nc2)c(F)c1-c1cccc(Cl)c1 [P-588, {2-[5-(3′-Chloro-2-fluoro-6-methoxy-biphenyl-3-ylmethyl)-pyridin-2-yloxy]-ethyl}-dimethyl-amine]
31 | < 5 µM | < 5 µM | COc1ccc(CN2C(=O)CC[C@@H]2CN)cc1-c1cccc([N+](=O)[O-])c1 [P-156, (R)-5-Aminomethyl-1-(6-methoxy-3′-nitro-biphenyl-3-ylmethyl)-pyrrolidin-2-one]
32 | < 5 µM | < 5 µM | COc1ccc(Cc2ccc(C(N)=O)nc2)c(F)c1-c1cccc(C#N)c1 [P-415, 5-(3′-Cyano-2-fluoro-6-methoxy-biphenyl-3-ylmethyl)-pyridine-2-carboxylic acid amide]
33 | 5 to 20 µM | 5 to 20 µM | COc1ccc(Cc2ccc(OCCN(C)C)nc2)c(O)c1-c1cccc([N+](=O)[O-])c1 [P-150]
34 | < 5 µM | < 5 µM | COc1ccc(Cc2cnc(N)s2)c(F)c1-c1cccc(Cl)c1 [P-369, 5-(3′-Chloro-2-fluoro-6-methoxy-biphenyl-3-ylmethyl)-thiazol-2-ylamine]
35 | < 5 µM | < 5 µM | COc1ccc(Cc2ccc(OC[C@H]3CCCN3)nc2)c(F)c1-c1cccc(Cl)c1 [P-523, 5-(3′-Chloro-2-fluoro-6-methoxy-biphenyl-3-ylmethyl)-2-((R)-1-pyrrolidin-2-ylmethoxy)-pyridine]
36 | < 5 µM | < 5 µM | COc1ccc(Cc2c(C)noc2C)cc1-c1ccc2c(c1)OCO2 [P-062, 4-(3-Benzo[1,3]dioxol-5-yl-4-methoxy-benzyl)-3,5-dimethyl-isoxazole]
37 | < 5 µM | 5 to 20 µM | COc1ccc(Cc2ccccc2CO)cc1-c1cccc([N+](=O)[O-])c1 [P-134, [2-(6-Methoxy-3′-nitro-biphenyl-3-ylmethyl)-phenyl]-methanol]
38 | < 5 µM | < 5 µM | CC(C)(O)c1ccc(Cc2ccc(OC(F)F)c(-c3cccc(Cl)c3)c2)cn1 [P-610, 2-[5-(3′-Chloro-6-difluoromethoxy-biphenyl-3-ylmethyl)-pyridin-2-yl]-propan-2-ol hydrochloride]
39 | < 5 µM | 21 to 40 µM | COc1ccc(C(O)c2ccnn2C)cc1-c1ccc2c(c1)OCO2 (stereo not drawn) [P-073, (3-Benzo[1,3]dioxol-5-yl-4-methoxy-phenyl)-(2-methyl-2H-pyrazol-3-yl)-methanol]
40 | < 5 µM | < 5 µM | O=[N+]([O-])c1cccc(-c2c(OC(F)F)ccc(Cc3ccc(F)cc3)c2F)c1 [P-116]
41 | 5 to 20 µM | 5 to 20 µM | COc1ccc(Cn2cc(NC(C)=O)ccc2=O)cc1-c1cccc([N+](=O)[O-])c1 [P-211, N-[1-(6-Methoxy-3′-nitro-biphenyl-3-ylmethyl)-6-oxo-1,6-dihydro-pyridin-3-yl]-acetamide]
42 | < 5 µM | < 5 µM | COc1ccc(Cc2ccc(N3CCC[C@H]3C(N)=O)nc2)c(F)c1-c1cccc(Cl)c1 [P-612, (S)-1-[5-(3′-chloro-2-fluoro-6-methoxy-biphenyl-3-ylmethyl)-pyridin-2-yl]-pyrrolidine-2-carboxylic acid amide]
43 | < 5 µM | < 5 µM | CNc1ccc(Cc2ccc(OC)c(-c3cccc(Cl)c3)c2F)cc1 [P-311, [4-(3′-Chloro-2-fluoro-6-methoxy-biphenyl-3-ylmethyl)-phenyl]-methyl-amine]
44 | < 5 µM | < 5 µM | COc1ccc(Cc2c(C)nn(CCO)c2C)cc1-c1cccc([N+](=O)[O-])c1 [P-088, 2-[4-(6-Methoxy-3′-nitro-biphenyl-3-ylmethyl)-3,5-dimethyl-pyrazol-1-yl]-ethanol]

Row | Structure (SMILES) | IC50 [1] | IC50 [2]
45 | COc1ccc(C2(c3ccc(F)cc3)CCN(C)CC2)cc1-c1cccc(Cl)c1 [P-564, 4-(3′-Chloro-6-methoxy-biphenyl-3-yl)-4-(4-fluoro-phenyl)-1-methyl-piperidine] | 5 to 20 µM | 21 to 40 µM
